Read-outs that look alike come from different tables or passages of the source.
What was measured:
[1] = In vitro human microsomal stability assay; type: in vitro ADME; conditions: human, microsomes, 0.5 h, 0.5 μM, pH 7.4
Summary of the method: (§1)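 Compound is mixed with liver microsomes (human, or rat of the Sprague-Dawley strain). The mixture is then held at 37° C. in the presence of NADPH. Time-zero plates also receive NADPH.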

human TRPV3 = target: T1, human TRPV3 (Homo sapiens, UniProt Q8NET8); experiment: In vitro antagonism of recombinant human TRPV3 activation (FLIPR Tetra calcium assay); type: cell-based; conditions: HEK293 cells stably expressing human TRPV3, agonist 2-APB at 80 μM
T1 construct: expressed in transfected cells
T1 sequence (Q8NET8 1-790): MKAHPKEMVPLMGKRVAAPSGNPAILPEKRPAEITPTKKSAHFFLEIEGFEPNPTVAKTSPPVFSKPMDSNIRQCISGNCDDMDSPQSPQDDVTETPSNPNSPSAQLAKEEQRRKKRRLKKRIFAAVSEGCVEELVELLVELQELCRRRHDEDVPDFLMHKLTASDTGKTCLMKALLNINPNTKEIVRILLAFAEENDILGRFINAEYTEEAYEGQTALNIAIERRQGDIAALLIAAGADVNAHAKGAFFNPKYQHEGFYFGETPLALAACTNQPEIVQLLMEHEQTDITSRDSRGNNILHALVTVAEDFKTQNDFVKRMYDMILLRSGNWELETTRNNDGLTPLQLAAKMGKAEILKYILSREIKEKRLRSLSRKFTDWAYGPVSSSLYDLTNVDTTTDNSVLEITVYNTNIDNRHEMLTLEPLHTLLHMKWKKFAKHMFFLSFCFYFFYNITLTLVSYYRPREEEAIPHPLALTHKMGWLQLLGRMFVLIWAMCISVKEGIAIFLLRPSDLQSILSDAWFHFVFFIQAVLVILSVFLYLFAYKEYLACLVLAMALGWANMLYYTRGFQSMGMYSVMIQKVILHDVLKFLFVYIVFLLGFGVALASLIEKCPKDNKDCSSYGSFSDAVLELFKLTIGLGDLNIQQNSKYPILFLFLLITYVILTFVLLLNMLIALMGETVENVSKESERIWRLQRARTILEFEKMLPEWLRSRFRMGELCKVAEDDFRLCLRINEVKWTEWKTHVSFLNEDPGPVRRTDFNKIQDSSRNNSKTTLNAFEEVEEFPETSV
Summary of the method: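 HEK293 cells stably expressing human TRPV3, loaded with Calcium-4 dye for 90–120 min, received compound in DPBS, then 80 μM 2-APB (EC80) 3 min later. Max-minus-min fluorescence expressed as % of 2-APB response without antagonist; IC50 values mostly averages of n≥2 runs.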

[2] = In vitro rat microsomal stability assay; type: in vitro ADME, rat (Sprague-Dawley); conditions: Sprague-Dawley, rat, microsomes, 0.5 h, 0.5 μM, pH 7.4
Summary of the method: as §1

[3] = actual measured value shown parenthetically, in most cases average of at least two runs, read-out: IC50

Compound	HUMAN MICROSOMAL STABILITY (% REMAINING AFTER 30 MINUTES) [1]	IC50 (human TRPV3; [3])	RAT MICROSOMAL STABILITY (% REMAINING AFTER 30 MINUTES) [2]	IC50 (human TRPV3; reported range, read-out: IC50 (range class))
O[C@H](c1ncccn1)C1(c2ccc(C(F)(F)F)cc2)CCC1 [Example 41, (S)-pyrimidin-2-yl{1-[4-(trifluoromethyl)phenyl]cyclobutyl}methanol]	54%	> 10 µM	21%	
O[C@@H](c1ncccn1)C1(c2ccc(C(F)(F)F)cc2)CCC1 [Example 42, (R)-pyrimidin-2-yl{1-[4-(trifluoromethyl)phenyl]cyclobutyl}methanol]	50%	> 10 µM	40%	
OC(c1ccccn1)C1(c2ccc(Cl)c(Cl)c2)CCCCC1 (stereo not shown) [Example 43, [1-(3,4-dichlorophenyl)cyclohexyl](pyridin-2-yl)methanol]	1.8%	0.66 µM	0.31%	0.05 to 0.5 µM
Cc1ccccc1C(C)C1(C(O)c2ccccn2)CCC1 (stereo not shown) [Example 45, {1-[1-(2-methylphenyl)ethyl]cyclobutyl}(pyridin-2-yl)methanol]	0.03%	2.22 µM	0.02%	
CC(c1ccc(F)cc1)C1(C(O)c2ccccn2)CCC1 (stereo not shown) [Example 46, {1-[1-(4-fluorophenyl)ethyl]cyclobutyl}(pyridin-2-yl)methanol]	11%	13.7 µM	0.23%	
CC(c1ccc(Cl)cc1)C1(C(O)c2ccccn2)CCC1 (stereo not shown) [Example 49, {1-[1-(4-chlorophenyl)ethyl]cyclobutyl}(pyridin-2-yl)methanol]	15%	3.27 µM	0.13%	
CC(c1ccccc1Cl)C1(C(O)c2ccccn2)CCC1 (stereo not shown) [Example 50, {1-[1-(2-chlorophenyl)ethyl]cyclobutyl}(pyridin-2-yl)methanol]	0.08%	2.42 µM	0.18%	
Cc1ccc(CC2(C(O)c3ccccn3)CCC2)cc1 (stereo not shown) [Example 52, [1-(4-methylbenzyl)cyclobutyl](pyridin-2-yl)methanol]	1.7%	5.02 µM	0.05%	
OC(c1ccccn1)C1(C2CCc3ccccc32)CCC1 (stereo not shown) [Example 55, [1-(2,3-dihydro-1H-inden-1-yl)cyclobutyl](pyridin-2-yl)methanol]	1.6%	7.12 µM	0.29%	
OC(c1ccccn1)C1(C2CCCc3ccccc32)CCC1 (stereo not shown) [Example 56, pyridin-2-yl[1-(1,2,3,4-tetrahydronaphthalen-1-yl)cyclobutyl]methanol]	0.42%	1.07 µM	1.1%	
OC(c1ccccn1)C1(C2CCOc3ccccc32)CCC1 (stereo not shown) [Example 57, [1-(3,4-dihydro-2H-chromen-4-yl)cyclobutyl](pyridin-2-yl)methanol]	16%	9.29 µM	10%	
OC(c1ccccn1)C1(C(c2ccccc2)C(F)(F)F)CCC1 (stereo not shown) [Example 58, pyridin-2-yl[1-(2,2,2-trifluoro-1-phenylethyl)cyclobutyl]methanol]	36%	3.63 µM	33%	
OC(c1ccccn1)C1(c2ccc(Cl)c(Cl)c2)CCOCC1 (stereo not shown) [Example 59, [4-(3,4-dichlorophenyl)tetrahydro-2H-pyran-4-yl](pyridin-2-yl)methanol]	45%	1.79 µM	12%	

Reference: patent US8772499B2, “TRPV3 modulators” (AbbVie Inc., priority 2011, dated 2014)
